# Measured values published in patent US4831033A (City of Hope, priority 1988, dated 1989).
# Tests used:
# [1] = system: K^+ transport, P3 membrane fractions from whole brains of Swiss mice; experiment: K^+ transport (^86 Rb uptake) in P3 membrane fractions; assay type: biochemical; conditions: for K^+ Transport Relative Potency: relative to amodiaquin; for concentration inhibiting K^+ transport (selection criterion): submillimolar concentrations
# Experimental: To obtain the data set forth in Table I, K^+ -transport was measured using P3 membrane fractions prepared from whole brains of Swiss mice. […] The resulting supernatant was centrifuged at 17,000 g for 15 minutes, and the supernatant from the latter was centrifuged at 70,000 g for 1 hour to pellet the P3 fraction. The P3 pellet was washed by resuspension in 50 mM Tris-citrate (pH 7.3). After 10 minutes on ice, the suspension was centrifuged at 70,000 g for 10 minutes. This washing procedure was repeated twice using distilled water for the resuspension. […] The suspension (2-3 mg protein/ml) was stabilized on ice for 1 hour prior to use. Uptake of ^86 Rb (radioactive) was used to assess the K^+ -transport of the P3 articles. Many published experiments have shown the ^86 Rb, with a half-life 36 times longer than ^42 K, is a suitable tracer for K. Rb permeates neuronal K channels as well as does K itself.
# After filtration of the samples, the filters were washed rapidly three times with 10^-3 M triethanolamine containing 0.1M RbCl (non-radioactive) and counted in ACS liquid scintillation cocktail (Amersham). In calculating the results, the uptake found in the presence of 0.1M non-radioactive RbCl was subtracted from that found in the presence of various concentrations of the test substances in the presence of 10^-6 M ^86 RbCl alone. […] Between 0.2 and 0.5 mg/ml usually were employed. The results were normalized by calculating them as percentages of the uptake observed with 10^-6 M ^86 RbCl alone.
# Acetylcholinesterase = target: T1, Acetylcholinesterase (Electrophorus electricus, UniProt O42275); experiment: Acetylcholinesterase activity, acetylthiocholine substrate, colorimetric (Ellman); assay type: biochemical, electric eel; conditions: for Acetylcholinesterase Activity Relative Potency: relative to amodiaquin
# T1 construct: prepared from the electric organ of the electric eel; from tissue; host or cells: electric organ of the electric eel
# Experimental: Cholinesterase activity reported in Table I was measured by a standard procedure. The enzyme employed was prepared from the electric organ of the electric eel. It is known to have the same properties as the enzyme of mammalian nervous tissue. Acetylthiocholine was used as substrate.
# Inhibitory potency of substances was determined by measuring enzyme activity in the absence and presence of varying concentrations of the test substances.
# T1 sequence (O42275 24-633): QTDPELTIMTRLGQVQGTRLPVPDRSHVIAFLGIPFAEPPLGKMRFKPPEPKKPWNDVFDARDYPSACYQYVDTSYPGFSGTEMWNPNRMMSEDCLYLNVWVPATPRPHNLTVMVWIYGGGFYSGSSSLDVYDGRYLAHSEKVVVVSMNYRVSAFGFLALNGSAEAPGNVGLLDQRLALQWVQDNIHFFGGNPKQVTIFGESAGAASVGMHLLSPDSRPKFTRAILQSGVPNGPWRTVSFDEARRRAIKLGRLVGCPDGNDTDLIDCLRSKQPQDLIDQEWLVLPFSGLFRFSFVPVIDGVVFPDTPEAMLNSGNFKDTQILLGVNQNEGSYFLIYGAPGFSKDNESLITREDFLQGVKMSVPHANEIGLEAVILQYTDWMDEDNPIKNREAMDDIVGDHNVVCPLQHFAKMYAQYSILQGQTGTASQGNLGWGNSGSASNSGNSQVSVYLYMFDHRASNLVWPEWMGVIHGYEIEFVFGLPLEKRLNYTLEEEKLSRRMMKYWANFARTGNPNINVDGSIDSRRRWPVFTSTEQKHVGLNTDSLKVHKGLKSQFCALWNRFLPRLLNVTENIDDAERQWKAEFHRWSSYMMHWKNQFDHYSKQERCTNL
Compound,K^+ Transport Rank Order [1],K^+ transport inhibition compared with amodiaquin (in words) [1],cholinesterase inhibitory potency compared with amodiaquin (in words) (Acetylcholinesterase),Acetylcholinesterase Activity Rank Order (Acetylcholinesterase),Acetylcholinesterase Activity Relative Potency (Acetylcholinesterase),K^+ Transport Relative Potency [1],concentration inhibiting K^+ transport (selection criterion) [1]
Nc1c2ccccc2nc2ccccc12 [9-aminoacridine],2,approximately one-half,,,,,
"CCN(CC)Cc1cc(Nc2ccnc3cc(Cl)ccc23)ccc1O [Amodiaquin, amodiaquin]",1,ranked first,most effective cholinesterase inhibitor of this group,,,,
"CCN(CC)CCCC(C)Nc1ccnc2cc(Cl)ccc12 (stereo not shown) [Chloroquine, chloroquine]",4,approximately one-twentieth as active,less than one-thousandth,5(4),0.001,0.067,≤ 10^-3 M
"CCN(CC)CCCC(C)Nc1c2ccc(Cl)cc2nc2ccc(OC)cc12 (stereo not shown) [Quinacrine, quinacrine]",3,approximately one-half,less than one-thousandth,4(5),0.001,0.44,≤ 10^-3 M
